Measurements: US5801201A, “1-phenyl-2-dimenthylaminomethyl-cyclohexan-1-ol compounds as pharmaceutical active ingredients” (priority 1995, dated 1998)
Counter-ions that a name gives are not always drawn.

Each compound was assayed on mice (assay: Analgesia, thermal radiation (tail flick) test on mice, intravenous). Conditions: Mus musculus, 20 min, determined at effective maximum 20 minutes after administration, effect = latency ≥150% of pre-test average.
Assay type: in vivo, mice (male NMRI)
Excerpt: Testing for analgesia using the tail flick test on mice
The analgesic effectiveness of the compounds according to the invention was investigated in the thermal radiation (tail flick) test on mice using the method of D'Amour and Smith (J. Pharm. Exp. Ther. 72, 74-79 (1941). Male NMRI mice with a weight between 20 and 24 g were used for this purpose. The animals were placed individually in special test cages and the bases of their tails were exposed to the focused thermal radiation from an electric lamp (Rhema Analgesiemeter Type 3010). The lamp intensity was adjusted so that the time from switching on the lamp until the sudden twitching away of the tail (latency of pain) was 3-5 seconds for untreated animals. Before the administration of a compound according to the invention, the animals were pre-tested twice within five minutes and the average value of these measurements was calculated as the pre-test average. The pain measurement was made 20, 40 and 60 minutes after intravenous administration. When the latency of pain increased, the maximum time of exposure was restricted to 12 seconds and an increase in the latent period to ≥150% of the pre-test average value was assessed as an analgesic effect. In order to determine the dosage-dependency, the respective compound according to the invention was applied in doses increasing logarithmically by a factor of 3-5, which included the threshold and the maximum effective dose each time. The ED50 values were determined from the number of analgesic animals by the method of Litchfield and Wilcoxon (J. Pharm. Exp. Ther. 96, […], (1949)). Determination of the ED50 was made at the effective maximum 20 minutes after intravenous administration of the substance.

SMILES | ED50
COc1cccc([C@]2(O)CC[C@@H](OCc3ccccc3)C[C@H]2CN(C)C)c1.Cl [[(-)1], (1S,2S,4R)-4-benzyloxy-2-dimethylaminomethyl-1-(3-methoxy-phenyl)-cyclohexanol hydrochloride] | 0.822 mg/kg
COc1cccc([C@@]2(O)CC[C@H](OCc3ccccc3)C[C@@H]2CN(C)C)c1.Cl [[(+)1], (1R,2R,4S)-4-benzyloxy-2-dimethylaminomethyl-1-(3-methoxy-phenyl)-cyclohexanol hydrochloride] | 0.049 mg/kg
COc1cccc([C@@]2(O)CC[C@H](OCc3ccc(Cl)cc3)C[C@@H]2CN(C)C)c1.Cl [(93), (+)-(1R, 2R, 4S)-4-(4-chloro-benzyloxy)-2-dimethylaminomethyl-1-(3-methoxyphenyl)-cyclohexanol hydrochloride] | 0.37 mg/kg
CN(C)C[C@H]1C[C@@H](OCC2CCCC2)CC[C@]1(O)c1cccc(OC2CCCC2)c1.Cl (racemic) [(60), (1RS,2RS,4SR)-4-cyclopentylmethoxy-1-(3-cyclopentyl-oxy-phenyl)-2-dimethylaminomethyl-cyclohexanol hydrochloride] | 2.46 mg/kg
COc1cccc([C@@]2(O)CC[C@H](Cc3ccccc3)C[C@@H]2CN(C)C)c1.Cl (racemic) [(35), (1RS,2RS,4SR)-4-benzyl-2-dimethylaminomethyl-1-(3-methoxy-phenyl)-cyclohexanol hydrochloride] | 2.43 mg/kg
CN(C)C[C@H]1C[C@@H](OCc2ccccc2)CC[C@]1(O)c1cccc(O)c1.Cl [(85), (+)-(1R, 2R, 4S)-3-(4-benzyloxy-2-dimethylaminomethyl-1-hydroxycyclohexyl)-phenol hydrochloride] | 0.068 mg/kg
CN(C)C[C@H]1C[C@@H](CCC2CCCC2)CC[C@]1(O)c1cccc(OC2CCCC2)c1 [(71), hydrochloride] | 3.35 mg/kg
C=C(C)CO[C@H]1CC[C@](O)(c2cccc(OC)c2)[C@@H](CN(C)C)C1 (relative stereo) [(14), (1RS,2RS,4SR)-2-dimethylaminomethyl-1-(3-methoxy-phenyl)-4-(2-methyl-2-allyloxy)-cyclohexanol hydrochloride] | 0.379 mg/kg
CSc1cccc([C@@]2(O)CC[C@H](OCc3ccccc3)C[C@@H]2CN(C)C)c1 [[(+)6], (1R,2R,4S)-4-benzyloxy-2-[(dimethylamino)methyl]-1-(3-methyl-sulphanyl-phenyl)-cyclohexanol hydrochloride] | 0.19 mg/kg
